Results as given in patent publication EP4813970A1, “L-SERINE HAVING REDUCED HEAVY METAL AMOUNT, PHARMACEUTICAL COMPOSITION THEREOF, PREPARATION METHOD THEREFOR, AND USE THEREOF” (priority 2023, dated 2025).
Like-named read-outs stand apart in the source and are kept apart here.

Columns and labels:
HT22 cells = experiment: Mitochondrial membrane potential by JC-1 staining after DMNQ damage; format: cell-based
Protocol: HT22 cells were cultured under 37°C and 5% CO2 conditions using DMEM medium containing 10% FBS, 100 unit/mL penicillin, and 100 µg/mL streptomycin. […] After checking the condition of the cells, 5 µM JC-1 was added to the medium and the cells were stained for 30 minutes under 37°C and 5% CO2 conditions, treated with 0.25% trypsin-EDTA and the cells were collected in an e-tube, washed twice with PBS, and analyzed with Attune NxT. The effect of L-serine, which contains class 1 heavy metals, on mitochondria, which affects both neurological diseases and metabolic diseases, was confirmed depending on the concentration of class 1 heavy metals. DMNQ causes oxidative stress and excessive production of ROS, which induces mitochondrial membrane potential depolarization, thereby resulting in mitochondrial dysfunction and apoptosis. In mitochondria, an electrochemical proton gradient is created through the mitochondrial membrane, which produces ATP, and when mitochondria are damaged and apoptosis occurs, mitochondrial permeability pores are opened and thus mitochondrial transmembrane potential decreases (membrane potential depolarization). Mitochondrial membrane potential difference, which is an indicator of apoptosis, was measured through JC-1 staining. JC-1 enters the mitochondria in normal cells due to changes in mitochondrial membrane potential and forms a multicomplex, thereby giving it a red color, whereas when apoptosis occurs due to depolarization of the mitochondrial membrane potential, JC-1 remains in the cytoplasm and gives it a green color. Four hours before DMNQ treatment, neurons were treated with unpurified L-serine, primary purified L-serine, and secondary purified L-serine, and then treating with DMNQ for 2 hours and 30 minutes, the degree of protection of neurons was measured by measuring the mitochondrial membrane potential difference through JC-1 staining.

primary neurons = experiment: Multi-electrode array (MEA) of neuronal electrical activity under DMNQ neurotoxicity; format: cell-based, mouse; conditions: FIG. 3
Protocol: After adding an equal volume of culture medium, cells were separated by a mechanical method using a pipet, and single cells were separated using a 40 µm cell strainer. After centrifugation at 2,000 rpm for 5 minutes, the supernatant was removed and resuspended in culture medium. […] A 50% PEI solution, which was prepared by mixing borate buffer and PEI in a 1:1 ratio, was diluted with a 0.1% PEI solution using borate buffer and then filtered using a 0.22 µm filter. […] Laminin stock stored at -20°C was thawed at 4°C and then diluted in serum-free medium (20 ng/mL). 40 µL of 0.1% PEI was added to each well of a 24-well MEA plate, and then the 24-well MEA plate was placed in a cell incubator at 37°C and 5% CO2 for 60 minutes. After washing the 24-well MEA plate three times with sterile DW, the laminin solution was added 50 µL per well and placed overnight in a cell incubator at 37°C and 5% CO2. After removing the laminin solution from the 24-well MEA plate, the prepared primary neurons were seeded at a concentration of 1.0 × 10^5 cells/well. […] Neuronal electrical activity was measured using the Maestro Edge system every 30 minutes for 15 minutes, and the same amount of secondary purified L-serine was pretreated for 4 hours based on 0.1 mM unpurified L-serine. After drug pretreatment for 4 hours, neuronal electrical activity was measured 4 times at 30 minute intervals during 2-hour treatment with 20 µM DMNQ, and the data was analyzed using a neural metric tool and an axis metric plotting tool. […] For the MEA, neurons were cultured on electrodes for several weeks to form a network and then the electrical signals, that is action potentials, generated from the neurons were measured. […] The primary neuronal culture was cultured in 24-well MEA plates for approximately 15 days, and when electrical signals were passed through sporadic bursts and activated into synchronous network bursts, test substances were treated at concentrations not affecting cell viability, and action potentials were measured and compared.

[1] = system: patients with autism spectrum disorder; experiment: Phase 2 clinical trial of L-serine in children under 11 years of age; conditions: 400 mg/kg for 24 weeks
[2] = system: fetuses with 3-PGDH deficiency; conditions: cited from earlier work
[3] = system: patients with amyotrophic lateral sclerosis (ALS); conditions: cited from earlier work
[4] = system: patients with hereditary sensory and autonomic neuropathy type 1 (HSAN1); conditions: cited from earlier work
[5] = system: 5XFAD (Tg6799; five familial mutation); experiment: Survival on 9-month administration in an Alzheimer's disease animal model; format: in vivo, mice; conditions: 500 mg/kg orally 5 days a week for 9 months, 3 to 12 months of age
Protocol: In order to measure the extent to which the class 1 heavy metal content in L-serine affects neurons when taken over a long period of time, long-term administration of L-serine for 9 months from the early stage of the disease (3 months of age) to 12 months of age was conducted using 5XFAD (Tg6799; five familial mutation), which is an animal model of Alzheimer's disease, and the effect of the drug on animal viability was confirmed. Specifically, WT & 5XFAD mice (purchased from The Jackson Lab) administered with saline and WT & 5XFAD mice administered with L-serine were composed of 12 mice per group. Saline and 500 mg/kg of unpurified L-serine and secondary purified L-serine were orally administered 5 days a week for 9 months, and after administration, the survival rate (%) was measured through daily observation of mice and designated as survival rate.

[6] = oral twice a day, maximum dose of 15 g/day for 6 months
[7] = 4 hours pretreatment (based on 0.1 mM unpurified L-serine), then 2-hour 20 µM DMNQ

COC1=C(OC)C(=O)c2ccccc2C1=O [DMNQ]
mitochondrial damage (green) (HT22 cells; 20 µM DMNQ alone): 81.4±4.2%
active electrodes (spikes and network bursts) (primary neurons; 20 µM DMNQ alone, compared to the control group): significantly reduced

N[C@@H](CO)C(=O)O [L-serine]
mitochondrial damage (green) (HT22 cells; 0.5 mM, pre-treated 4 hours, then 20 µM DMNQ): 32.1±1.52%
mitochondrial damage (green) (HT22 cells; 1 mM, pre-treated 4 hours, then 20 µM DMNQ): 18.7±11.1%
mitochondrial damage (green) (HT22 cells; 2.5 mM, pre-treated 4 hours, then 20 µM DMNQ): 1.5±0.23%
side effects [1]: without any unusual side effects
treatment efficiency [1]: about 40%
brain growth in fetuses ([2]; maternal supply of L-serine during pregnancy): shown to improve brain growth
neurological symptoms ([2]; postnatal children (birth to 4 years old)): shown to prevent neurological symptoms
adverse reactions ([2]; pregnant women, fetuses, and newborns): no adverse reactions were observed
progression of the patients' disease [3, 6]: showed the effect of delaying the progression of the patients' disease
safety [3, 6]: safe
safety ([3]; phase 2 clinical trials, up to 15 g twice a day for 6 months): shown to be safe
safety and Charcot-Marie-Tooth Neuropathy Score (CMTNS) ([4]; 400 mg/kg/day for up to 2 years): effects of improving safety and Charcot-Marie-Tooth Neuropathy Score (CMTNS) were confirmed
1-deoxySL (dSL) ([4]; oral, up to 400 mg/kg/day for 10 and 52 weeks): reduced

N[C@@H](CO)C(=O)O [secondary purified L-serine, L-serine]
active electrodes (spikes and network bursts) (primary neurons; [7]): active electrodes in a state without DMNQ treatment were maintained
survival rate [5]: 80%

N[C@@H](CO)C(=O)O [unpurified L-serine, L-serine]
active electrodes (spikes and network bursts) (primary neurons; [7]): the effect was not distinct
survival rate [5]: 58%
